From patent publication US20230190707A1, “COMPOSITIONS AND METHODS FOR ENHANCING CANCER IMMUNOTHERAPY” (FRED HUTCHINSON CANCER CENTER, priority 2020, published 2023)
Like-named read-outs stand apart in the source and are kept apart here.

Key:
[1] = Peripheral blood counts after extended treatment; details: three weeks, with or without anti-PD1
Protocol: (§2) Animals were subcutaneously engrafted on bilateral flanks with tumor cells (MC38 1×10^6, B16-F10 0.5×10^6 and LLC 0.25×10^6 cells unless otherwise specified) on day 0, and treated continuously with splicing inhibitors (MS-023 50 mg/kg i.p., indisulam 25 mg/kg i.v. or vehicle) daily for 5 of 7 weekly days starting from day +3 of tumor challenge. […] Mice were weighed weekly for weight-based drug dosing.

[2] = system: B16-F10, MC38, CT26, and LLC cells; test: Cell growth/viability IC50 (CellTiter-Glo); format: cell-based; details: Mus musculus; range across B16-F10, MC38, CT26, LLC cells
Protocol: Cell lines were grown with half-log10 concentrations of the indicated drug in 4 to 8 technical replicates under standard conditions until the control condition (DMSO or vehicle) was confluent by microscopy. For tumor cell lines, viable cells were quantified via the CellTiter-Glo® assay (Promega Cat. G7573) as per manufacturer instructions. For the ex vivo proliferation of T cells, viable cells were instead quantified via flow cytometry using counting beads. The percentage or number of viable cells with drug treatment was calculated relative to DMSO control (as 100%). […] For absolute cell number, Annexin V+, CD25+, and PD1+ flow cytometry data presented in Figure S4, dose-response models and IC50 values were computed using the R language's dre package (Ritz, C., et al. (2015). Dose-Response Analysis Using R. PLoS One 10, e0146021).

LLC tumors = test: Therapeutic treatment with indisulam and anti-PD1, LLC tumors; format: in vivo, mouse; details: syngeneic C57BL/6; indisulam 25 mg/kg i.v.; anti-PD1 250 μg
Text: (§1) Mice were weighed weekly for weight-based drug dosing.

RBM39 = biological target: T1, RBM39 (Mus musculus, UniProt Q6PFH3+Q8VH51); test: RBM39 protein in tissues after in vivo indisulam; details: therapeutic indisulam doses
T1 construct: endogenous in cells; host or cells: B16-F10 (also MC38, CT26, LLC)
Protocol: Western blotting was performed as per standard techniques. Anti-RBM39 (Atlas Antibodies, Cat. HPA001591 or Bethyl laboratories, Cat. A300-291A) were used to detect RBM39 degradation. ADMA and SDMA levels were determined using antibodies from Cell Signaling Technologies (Cat. 13222S and Cat. 135225). Actin antibody (clone AC-15) was obtained from MilliporeSigma (Cat. A5441-.2ML). Densitometry of RBM39 and actin loading control was performed using ImageJ software in order to calculate RBM39 degradation IC50 values.
as §1

H-2D^b = H-2D^b (Mus musculus, UniProt P01899); test: MHC I immunoprecipitation and LC-MS/MS, H-2D^b; format: cell-based
Sequence of H-2D^b (P01899 25-362 limits assumed): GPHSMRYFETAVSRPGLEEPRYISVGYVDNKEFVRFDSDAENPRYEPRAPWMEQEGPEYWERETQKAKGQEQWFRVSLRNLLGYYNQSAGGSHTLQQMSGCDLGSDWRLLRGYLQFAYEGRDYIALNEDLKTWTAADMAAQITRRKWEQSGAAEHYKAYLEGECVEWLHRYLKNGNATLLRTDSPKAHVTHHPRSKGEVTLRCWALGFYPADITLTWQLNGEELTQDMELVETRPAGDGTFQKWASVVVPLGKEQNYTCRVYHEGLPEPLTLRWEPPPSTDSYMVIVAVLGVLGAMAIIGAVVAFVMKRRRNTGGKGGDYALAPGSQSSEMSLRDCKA
Text: Peptide-MHC complexes were isolated as previously described (Abelin, J. G., et al. (2017). Mass Spectrometry Profiling of HLA-Associated Peptidomes in Mono-allelic Cells Enables More Accurate Epitope Prediction. Immunity 46, 315-326, incorporated herein by reference in its entirety), with the following modifications: anti-mouse H-2D^b (clone B22-249.R1, CedarLane laboratories, Cat. CL9001AP) or H-2K^b (clone Y-3, BioXCell Cat. BE0172) non-covalently linked to GammaBind Plus Sepharose beads were co-incubated with soluble lysates overnight. […]
Desalted, dried samples enriched for MHC peptides were resolubilized in 8 uL 0.10% TFA and 3 uL were loaded onto a packed-in-emitter 12 cm/75 um ID/3 um C18 particles column (Nikkyo Technos Co., Ltd. Japan). […] Precursor mass spectra were recorded from m/z 300-1500 m/z range at 60,000 resolution. […] MS/MS spectra were recorded at 30,000 resolution and lowest mass set at m/z 110. […] All experiments were recorded in FT-mode.
Mass spectra from all MHC immunoprecipitations were analyzed using Proteome Discoverer v2.4.1.15, with the following workflow. […]

CD8^+ T cells = test: IFNγ ELISpot with indisulam-treated B16-F10 cells as antigen-presenting cells; format: cell-based, mouse; details: B16-F10 treated with indisulam 1 μM for 96 hours
Protocol: Such cells were then non-enzymatically harvested, washed repeatedly to remove IFNγ, and irradiated to 60 Gy from a ^60Co source to inhibit growth and further upregulate MHC I. […] IFNγ ELISpot was performed as per manufacturer's instructions (BD Biosciences, Cat. 551083). Spots were imaged and quantified on an Immunospot® analyzer (Cellular Technology Limited, Cleveland, Ohio).

[3] = mouse, in vivo
Protocol: as §2

Structure (SMILES) | lymphocytes, neutrophils, or other peripheral blood counts [1] | IC50 [2] [µM] | growth of LLC tumors in vivo (LLC tumors) | RBM39 protein in tumoral as well as immune tissues in vivo (RBM39) | peptides only recovered from indisulam-treated samples (H-2D^b; B16-F10 cells) | bound peptides arising from mRNA isoforms specifically promoted by indisulam treatment (H-2D^b; intersection with RNA-seq) | antigen-specific T cell activation by indisulam-treated B16-F10 cells (CD8^+ T cells) | lymphocytes, neutrophils, or other peripheral blood counts [3]
CC(C)Oc1ccc(-c2c[nH]cc2CN(C)CCN)cc1 [MS-023] | negligible effects |  |  |  |  |  |  | 
NS(=O)(=O)c1ccc(S(=O)(=O)Nc2cccc3c(Cl)c[nH]c23)cc1 [indisulam] |  | 2.1 to 73 | inhibited tumor growth | on-target RBM39 protein reduction | 518 | 42 | triggers antigen-specific T cell activation | negligible effects
